Reference: US6008215A, “Benzonaphthyridines as bronchial therapeutics” (Byk Gulden Lomberg Chemische Fabrik GmbH, priority 1996, dated 1999)
Where a name gives a salt, the structure may show the parent alone.

How the values were obtained:
Assay type in all cases: biochemical
[1] = target: PDE4; test: Inhibition of PDE isoenzymes: PDE4 (cAMP-specific), cytosol of human polymorphonuclear leukocytes; conditions: PDE4, cytosol of human PMNL, cAMP as substrate, motapizone (1 μM) present
[2] = target: PDE3 (Homo sapiens, UniProt Q14432); test: Inhibition of PDE isoenzymes: PDE3 (cGMP-inhibited), homogenates of human blood platelets; conditions: read-out: -log IC50, PDE3 (converted)
Sequence of PDE3 (Q14432 whole entry): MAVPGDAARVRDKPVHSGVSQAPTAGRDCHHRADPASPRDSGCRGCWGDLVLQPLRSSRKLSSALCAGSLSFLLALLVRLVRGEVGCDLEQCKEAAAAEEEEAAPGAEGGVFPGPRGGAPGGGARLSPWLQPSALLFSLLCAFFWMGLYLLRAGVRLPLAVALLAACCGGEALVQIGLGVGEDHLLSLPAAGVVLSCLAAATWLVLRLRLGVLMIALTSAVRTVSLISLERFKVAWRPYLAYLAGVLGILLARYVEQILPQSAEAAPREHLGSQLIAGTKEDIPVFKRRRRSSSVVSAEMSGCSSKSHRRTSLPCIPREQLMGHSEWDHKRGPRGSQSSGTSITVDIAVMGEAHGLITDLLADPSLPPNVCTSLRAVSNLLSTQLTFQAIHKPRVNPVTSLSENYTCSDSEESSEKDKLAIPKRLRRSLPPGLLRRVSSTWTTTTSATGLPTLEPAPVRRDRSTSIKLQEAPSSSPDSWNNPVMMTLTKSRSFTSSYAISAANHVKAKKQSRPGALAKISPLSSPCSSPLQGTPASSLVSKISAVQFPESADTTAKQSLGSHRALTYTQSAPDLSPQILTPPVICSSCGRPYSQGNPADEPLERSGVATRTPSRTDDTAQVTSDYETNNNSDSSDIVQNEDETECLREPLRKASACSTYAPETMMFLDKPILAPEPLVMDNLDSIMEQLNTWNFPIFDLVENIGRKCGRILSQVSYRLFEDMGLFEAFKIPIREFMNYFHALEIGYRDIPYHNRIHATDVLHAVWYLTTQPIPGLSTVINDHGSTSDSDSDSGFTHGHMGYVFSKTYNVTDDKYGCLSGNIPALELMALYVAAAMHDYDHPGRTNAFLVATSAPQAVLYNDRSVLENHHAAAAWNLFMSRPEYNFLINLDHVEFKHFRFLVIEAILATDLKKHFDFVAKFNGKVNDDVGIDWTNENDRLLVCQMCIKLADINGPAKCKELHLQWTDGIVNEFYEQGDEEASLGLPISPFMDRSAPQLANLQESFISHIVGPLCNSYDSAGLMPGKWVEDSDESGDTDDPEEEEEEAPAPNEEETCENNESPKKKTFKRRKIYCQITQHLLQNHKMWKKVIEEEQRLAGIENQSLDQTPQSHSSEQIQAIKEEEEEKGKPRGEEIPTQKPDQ
Description: (§1) The PDE activity was determined according to Thompson et al. (1) with some modifications (2). The test samples contained 40 mM tris HCl (pH 7.4), 5 mM MgCl2, 0.5 μM cAMP or cGMP, [^3 H] cAMP or [^3 H]cGMP (about 50,000 cpm/sample), the PDE isoenzyme-specific additions described in greater detail below, the indicated concentrations of inhibitor and an aliquot of the enzyme solution in a total sample volume of 200 μl. […] After preincubation at 37° C. for 5 minutes, the reaction was started by addition of the substrate (cAMP or cGMP). The samples were incubated at 37° C. for a further 15 min. The reaction was terminated by addition of 50 μl of 0.2N HCl. After cooling on ice for 10 minutes and addition of 25 μg of 5'-nucleotidase (snake venom from Crotalus atrox), the mixture was again incubated at 37° C. for 10 min and the samples were then applied to QAE Sephadex A-25 columns. The columns were eluted with 2 ml of 30 mM ammonium formate (pH 6.0). The radioactivity of the eluate was measured and corrected by the corresponding blank values. The proportion of hydrolyzed nucleotide in no case exceeded 20% of the original substrate concentration.
PDE3 (cGMP-inhibited) and PDE5 (cGMP-specific) were investigated in homogenates of human blood platelets [Schudt et al. (4)] using cAMP or cGMP as a substrate.
(§2) The IC50 values were determined from the concentration-inhibition curves by nonlinear regression using the GraphPad InPlot™ program (GraphPad Software Inc., Philadelphia, U.S.A.).
In Table 1 below, the inhibitory concentrations determined according to Section A1 [inhibitory concentrations as -log IC50 (mol/l)] for the compounds according to the invention are indicated for various PDE isoenzymes. The numbers of the compounds correspond to the numbers of the examples.

[3] = target: PDE1; test: Inhibition of PDE isoenzymes: PDE1 (Ca^2+/calmodulin-dependent) from bovine brain; conditions: Ca^2+ (1 mM), calmodulin (100 nM), cGMP as substrate
[4] = target: T1, PDE2 (Rattus norvegicus, UniProt Q01062); test: Inhibition of PDE isoenzymes: PDE2 (cGMP-stimulated) from rat hearts; conditions: cGMP (5 μM), cAMP as substrate, read-out: -log IC50, PDE2 (converted)
T1 construct: from rat hearts was purified chromatographically; from tissue; host or cells: rat heart, chromatographically purified
T1 sequence (Q01062 1-928): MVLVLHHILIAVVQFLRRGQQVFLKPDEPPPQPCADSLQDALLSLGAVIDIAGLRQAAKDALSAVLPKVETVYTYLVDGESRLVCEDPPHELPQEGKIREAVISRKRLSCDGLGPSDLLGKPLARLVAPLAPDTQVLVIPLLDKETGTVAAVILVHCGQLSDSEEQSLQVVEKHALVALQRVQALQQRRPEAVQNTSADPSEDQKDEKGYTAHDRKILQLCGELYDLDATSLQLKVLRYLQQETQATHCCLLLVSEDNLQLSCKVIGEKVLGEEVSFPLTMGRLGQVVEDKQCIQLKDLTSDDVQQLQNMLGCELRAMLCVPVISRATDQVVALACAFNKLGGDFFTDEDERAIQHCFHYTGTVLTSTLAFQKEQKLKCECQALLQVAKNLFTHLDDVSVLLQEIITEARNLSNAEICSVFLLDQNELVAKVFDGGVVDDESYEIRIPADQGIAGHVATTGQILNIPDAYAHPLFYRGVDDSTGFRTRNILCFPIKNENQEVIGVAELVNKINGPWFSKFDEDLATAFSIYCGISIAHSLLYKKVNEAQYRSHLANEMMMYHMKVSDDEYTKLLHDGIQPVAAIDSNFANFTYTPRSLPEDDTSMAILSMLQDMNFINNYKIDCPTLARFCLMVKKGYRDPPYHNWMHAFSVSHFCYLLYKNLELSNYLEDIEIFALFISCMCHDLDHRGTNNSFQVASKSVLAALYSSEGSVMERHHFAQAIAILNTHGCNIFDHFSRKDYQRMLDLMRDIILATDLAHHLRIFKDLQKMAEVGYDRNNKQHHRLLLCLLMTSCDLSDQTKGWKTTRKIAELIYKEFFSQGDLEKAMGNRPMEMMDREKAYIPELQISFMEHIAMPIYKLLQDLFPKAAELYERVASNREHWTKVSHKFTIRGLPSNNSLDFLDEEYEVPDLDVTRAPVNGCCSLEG
Description: as §1, with “The columns were eluted with 2 ml of 30 mM ammonium formate (pH 6.0).” left out, “The proportion of hydrolyzed nucleotide in no case exceeded 20% of the original substrate concentration.” left out
as §2
(§3) In Table 1 below, the inhibitory concentrations determined according to Section A1 [inhibitory concentrations as -log IC50 (mol/l)] for the compounds according to the invention are indicated for various PDE isoenzymes. […]

[5] = target: T2, PDE5 (Homo sapiens, UniProt O76074); test: Inhibition of PDE isoenzymes: PDE5 (cGMP-specific), homogenates of human blood platelets; conditions: read-out: -log IC50, PDE5 (converted)
T2 construct: were investigated in homogenates of human blood platelets; from tissue; host or cells: human blood platelets, homogenate
Description: as §1, with “The columns were eluted with 2 ml of 30 mM ammonium formate (pH 6.0).” left out, “The proportion of hydrolyzed nucleotide in no case exceeded 20% of the original substrate concentration.” left out
as §2, §3

Row | -log IC50, PDE4 [1] | IC50 [2] [nM] | -log IC50, PDE1 [3] | IC50 [4] [nM] | IC50 [5] [nM] | Compound
1 | 7.94 | 417 |  |  |  | CCCCN(CCCC)C(=O)c1ccc(C2=N[C@H]3CCN(C)C[C@H]3c3cc(OCC)c(OCC)cc32)cc1.Cl (single isomer, unassigned) [Compound 17, (+)-cis-8,9-Diethoxy-6-(4-dibutylaminocarbonylphenyl)-2-methyl-1,2,3,4,4a,10b-hexahydrobenzo[c][1,6]naphthyridine hydrochloride]
2 | 8.18 | 27.5 |  |  |  | CCOc1cc2c(cc1OC)C(c1ccc(C(=O)N(C(C)C)C(C)C)cc1)=N[C@H]1CCN(C)C[C@@H]21.Cl (single isomer, unassigned) [Compound 19, (-)-cis-9-Ethoxy-8-methoxy-6-(4-diisopropylaminocarbonylphenyl)-2-methyl-1,2,3,4,4a,10b-hexahydrobenzo[c][1,6]naphthyridine hydrochloride]
3 | 7.67 | 457 |  |  |  | CCOc1cc2c(cc1OC)C(c1ccc(C(=O)OC)cc1)=N[C@H]1CCN(C)C[C@@H]21.Cl (single isomer, unassigned) [Compound 21, (-)-cis-9-Ethoxy-8-methoxy-6-(4-methoxycarbonylphenyl)-2-methyl-1,2,3,4,4a,10b-hexahydrobenzo[c][1,6]naphthyridine hydrochloride]
4 | 7.87 | 182 |  |  |  | CCOc1cc2c(cc1OCC)[C@@H]1CN(C)CC[C@@H]1N=C2c1ccc(C(=O)N2CCCCCC2)cc1.Cl (single isomer, unassigned) [Compound 18, (-)-cis-8,9-Diethoxy-6-[4-(hexahydroazepin-1-yl-carbonyl)phenyl]-2-methyl-1,2,3,4,4a,10b-hexahydrobenzo[c][1,6]naphthyridine hydrochloride]
5 | 6.45 | 72.4 |  |  |  | COc1cc2c(cc1OC)[C@H]1CN(C)CC[C@H]1N=C2c1ccc(C(=O)OC(C)C)cc1 (single isomer, unassigned) [Compound 3, (-)-cis-8,9-Dimethoxy-6-(4-isoropoxycarbonylphenyl)-2-methyl-1,2,3,4,4a,10b-hexahydrobenzo[c][1,6]naphthyridine hydrochloride]
6 | 8.51 | 22.9 |  |  |  | CCOc1cc2c(cc1OC)C(c1ccc(C(=O)N3CCCCCC3)cc1)=N[C@H]1CCN(C)C[C@@H]21 (single isomer, unassigned) [Compound 24, (-)-cis-9-Ethoxy-8-methoxy-6-[4-(hexahydroazepin-1-yl-carbonyl)phenyl]-2-methyl-1,2,3,4,4a,10b-hexahydrobenzo[c][1,6]naphthyridine]

Continued, compound first:

Row | Compound | -log IC50, PDE4 [1] | IC50 [2] [nM] | -log IC50, PDE1 [3] | IC50 [4] [nM] | IC50 [5] [nM]
7 | CCOc1cc2c(cc1OCC)[C@@H]1CN(C)CC[C@@H]1N=C2c1ccc(C(=O)OC(C)C)cc1.Cl (single isomer, unassigned) [Compound 5, (-)-cis-8,9-Diethoxy-6-(4-isopropoxycarbonylphenyl)-2-methyl-1,2,3,4,4a,10b-hexahydrobenzo[c][1,6]naphthyridine hydrochloride] | 7.75 | 70.8 |  |  | 
8 | CCCCN(CCCC)C(=O)c1ccc(C2=N[C@H]3CCN(C)C[C@H]3c3cc(OCC)c(OC)cc32)cc1.Cl (single isomer, unassigned) [Compound 23, (-)-cis-9-Ethoxy-8-methoxy-6-(4-dibutylaminocarbonylphenyl)-2-methyl-1,2,3,4,4a,10b-hexahydrobenzo[c][1,6]naphthyridine hydrochloride] | 8.56 | 229 |  |  | 
9 | CCOc1cc2c(cc1OCC)[C@H]1CN(C)CC[C@H]1N=C2c1ccc(C(=O)N(C(C)C)C2CCCCC2)cc1 (single isomer, unassigned) [Compound 16, (+)-cis-8,9-Diethoxy-6-(4-N-cyclohexyl-N-isopropylaminocarbonylphenyl)-2-methyl-1,2,3,4,4a,10b-hexahydrobenzo[c][1,6]naphthyridine hydrochloride] | 7.96 | 186 |  |  | 
10 | CCOc1cc2c(cc1OCC)[C@H]1CN(C)CC[C@H]1N=C2c1ccc(C(=O)N(C(C)C)C(C)C)cc1 (single isomer, unassigned) [Compound 11, (-)-cis-8,9-Diethoxy-6-(4-diisopropylaminocarbonylphenyl-2-methyl-1,2,3,4,4a,10b-hexahydrobenzo[c][1,6]naphthyridine hydrochloride] | 7.85 | 58.9 |  |  | 
11 | CCOc1cc2c(cc1OCC)[C@@H]1CN(C)CC[C@@H]1N=C2c1ccc(C(=O)OC)cc1.Cl (single isomer, unassigned) [Compound 4, (-)-cis-8,9-Diethoxy-6-(4-methoxycarbonylphenyl)-2-methyl-1,2,3,4,4a,10b-hexahydrobenzo[c][1,6]naphthyridine hydrochloride] | 7.54 | 214 | < 4 -log(mol/l) | 15800 | 3550
